# Values of other authors, collected in patent US20080131532A1, “Fast asleep” (priority 2006, published 2008).
# How the values were obtained:
# [1] = tested on: sleep-disturbed rats
# [2] = tested on: rat brain; conditions: following administration
# [3] = tested on: patients with multi-infarct dementia or senile dementia and senile and pre-senile simple memory disorders
# [4] = tested on: subjects with Alzheimer's disease; conditions: eight weeks, 50 subjects
# [5] = in vivo
# [6] = tested on: acetylcholinesterase
# [7] = tested on: long-term users of benzodiazepine; conditions: 2 milligrams daily controlled release
# [8] = tested on: healthy elderly subjects; conditions: 1 mg nightly for 4 weeks
# [9] = tested on: patients with tinnitus; conditions: 3 mg per day for 4 weeks; weeks 0 to 4 and weeks 0 to 8
# [10] = tested on: children with idiopathic chronic sleep-onset insomnia; conditions: 5 mg at 7 pm, 4-week treatment
# [11] = tested on: jet lag; conditions: two doses, different administration times
# [12] = tested on: healthy male volunteers; conditions: 10-mg dose for 28 days, 1 hour before sleep time
# [13] = tested on: women; conditions: 100 mg pill at 08.00 h
# [14] = tested on: children with neurologic disorders; conditions: 5 milligrams at bedtime, six children
# [15] = tested on: primary or secondary sleep disorders; conditions: meta-analysis
# [16] = tested on: schizophrenic outpatients with initial insomnia; conditions: 3-12 mg/night, 15 days
# [17] = tested on: travelers crossing five or more time zones
# [18] = tested on: women with asthma; conditions: 3 mg for 4 weeks, between groups
# [19] = sleep-disturbed rats, 09:00 to 15:00
compound,measurement,setting,value
"CCOC(=O)c1ncn2c1CN(C)C(=O)c1cc(F)ccc1-2 [Flumazenil, flumazenil]",effect on changes in delta activity induced by kava-kava extract and flunitrazepam,[1]; sleep-disturbed rats,no significant effect
C/C=C1\[C@H]2C=C(C)C[C@]1(N)c1ccc(=O)[nH]c1C2 [Huperzine A],acetylcholine levels in the rat brain,[2],increase
same,dopamine levels,[2],increases
same,norepinephrine levels,[2],increases
same,Dizziness,[3]; in vivo,experienced by a few
same,Wechsler Memory Scale,[3]; injectable form versus saline control,significant positive effects
same,"patients with significant improvement in memory, cognitive and behavioral functions",[4],58%
same,duration of AChE inhibitory action,"compared with tacrine, donepezil, and rivastigmine",longer duration
same,penetration through the blood-brain barrier,in vivo,better penetration
same,toxicity in animal and clinical safety tests,in vivo,no unexpected toxicity
same,oral bioavailability,"in vivo, po",higher
same,memory deficits,"phase IV clinical trials in China, elderly with benign senescent forgetfulness, Alzheimer disease, vascular dementia",significantly improved
same,time to reach peak blood level,[5],approximately 80 minutes
CC1=C[C@H]2Cc3[nH]c(=O)ccc3[C@]3(C1)NCCC[C@H]23 [Huperzine B],acetylcholinesterase inhibition (in words),[6],much less potent
"COc1ccc2[nH]cc(CCNC(C)=O)c2c1 [Melatonin, N-[2-(5-Methoxy-1H-indol-3-yl)ethyl]acetamide]",Sleep quality scores versus placebo,[7],significantly higher
same,subjects who completely discontinued benzodiazepine use,"[7]; period one, placebo four of 16",14 of 18
same,California Verbal Learning Test-interference subtest scores,[8],improved
same,reported morning restedness,[8],improved
same,sleep latency after nocturnal awakening,[8],improved
same,mean PSQI,[9],significantly decreased
same,mean THI score,[9],decreased significantly
same,Lights-off time,[10],did not change
same,advance of sleep offset,[10],9 min
same,advance of sleep onset,[10],57 min
same,decrease of sleep latency,[10],17 min
same,total scores of the RAND-GHRI and FS-II compared to placebo,[10],improved significantly more
same,total sleep time,[10],did not change
same,advance of melatonin onset,[10]; dim light melatonin onset in saliva,82 min
same,standardized response mean for the RAND-GHRI,[10]; placebo 0.07,0.69
same,standardized response mean for the FS-II,[10]; placebo 0.64,1.61
same,effect on jet lag versus placebo,[11],no beneficial physiological effect
same,"sleep latency, criterion 10 minutes of uninterrupted sleep",[12],significant reduction
same,daytime cortisol levels in postmenopausal women (PMW),[13],marked increase
same,serum cortisol levels in young women (EFW),[13],did not modify
same,Quality and quantity of sleep,[14],quickly increased in five of the six children
same,efficacy in primary or secondary sleep disorders,[15],not effective
same,daytime functioning,[16],improved
same,duration of sleep,[16],increased
same,freshness on awakening,[16],heightened
same,mood,[16],improved
same,number of nighttime awakenings,[16],reduced
same,sleep-onset latency (subjective),[16],significantly reduced
same,effect on jet lag,[17],reduce or prevent jet lag
same,"asthma symptoms, use of relief medication and daily peak expiratory flow rate",[18],No significant difference
CN1C(=O)CN=C(c2ccccc2F)c2cc([N+](=O)[O-])ccc21 [flunitrazepam],antagonism of the effects by flumazenil,[1]; benzodiazepine receptor antagonist flumazenil,antagonized
same,delta activity during non-REM sleep,[1]; sleep-disturbed rats,significant decrease
same,total non-REM sleep time,[1]; [19],increase
same,total waking time,[1]; [19],decrease
same,sleep latency,"[1]; sleep-disturbed rats, kava-kava extract 300 mg/kg",significant shortening
